Source: patent US10213397B2, “Microtubule polymerization modulators for treating LMNA-related dilated cardiomyopathy” (priority 2016, dated 2019)
Entries after “also recorded” stand apart in the source; their conditions may differ.

Key:
[1] = test system: patient diagnosed with LMNA-related DCM; assay: Treatment of patient diagnosed with LMNA-related dilated cardiomyopathy (case report); type: in vivo, human; settings: for patient's condition: carvedilol 25 mg twice daily with eplerenone 25 mg once daily, before colchicine
Source text: In August of 2013 patient […] was diagnosed with LMNA-related DCM, also known as “cardiac laminopathy,” an inherited degenerative cardiac disorder characterized by left ventricular dilation, arrhythmia, and cardiac enlargement. It is a subset of “non-ischemic cardiomyopathy.”
The patient worked as a college professor and the patient's condition worsened throughout the 2013-14 school year. The patient was heading toward long-term disability due to fatigue, shortness of breath and palpitations, all due to their progressive heart failure. In October, an implantable defibrillator was placed in the patient's chest, and the patient was hospitalized twice for cardiac arrhythmias (i.e., once for excessive premature ventricular contractions or TVCs′, and once for cardiac resynchronization for atrial fibrillation). Because conventional heart failure therapy appeared unsuccessful at ameliorating disease effects, the patient undertook a comprehensive review of literature on laminopathy to find a novel treatment.
In June 2014, the patient began experiencing PVC-burden cardiomyopathy, a secondary myopathy caused by a heavy premature ventricular contraction (PVC) load. Their PVCs were measured at 52,000 over a 48-hour holter-monitor. Given their deteriorating condition, now with NYHA class III heart failure, they sought care at Northwestern University's Bluhm Cardiovascular Institute in Chicago with Dr. Jane Wilcox.
Dr. Wilcox adjusted the patient's existing medication regimen to reflect best practice for treating dilated cardiomyopathy. The patient began taking 25 mg twice daily of carvedilol, as well as 25 mg once daily of eplerenone.
In January 2015, the patient underwent an unsuccessful procedure to ablate cardiac tissue causing their PVC burden. Their heart ejection fraction (EF), previously measured at 55%, was now measured at 45%. Later that month, the patient was hospitalized for Sotalol (antiarrhythmic drug) initiation. Sotalol was also unsuccessful in treating the patient's PVCs.
The patient had been very symptomatic with PVC's and could tell when his they were having PVC's.
Further, the patient was now considered to have NYHA class I heart failure symptoms and able to resume all previous activities, including running and biking, whereas previously the patient was NYHA class III (i.e., heart failure symptoms with mild activity).
As of July 2016, the patient stopped taking Sotalol because it seemed superfluous in respect to the patient's carvedilol regimen, and the patient has continued to be NYHA class I (i.e. asymptomatic).

[2] = cited from earlier work
[3] = test system: familial Mediterranean fever (FMF); settings: long-term use; reference 3; cited from earlier work
LMNA cells = settings: laboratory studies, reference 4 (Larrieu et al.); cited from earlier work

In the case of `CC(C)NCC(O)c1ccc(NS(C)(=O)=O)cc1` (stereo not drawn) [Sotalol], the “treatment of the patient's PVCs” value ([1]; January 2015, before colchicine) is reported as “unsuccessful”.

For `COc1ccccc1OCCNCC(O)COc1cccc2[nH]c3ccccc3c12` (stereo not drawn) [carvedilol], the “patient's condition” value [1] was “continued to deteriorate”.

In the case of `COc1cc2c(c(OC)c1OC)-c1ccc(OC)c(=O)cc1[C@@H](NC(C)=O)CC2` [colchicine], the “toxicity with P-gp or strong CYP3A4 inhibitors” value ([2]; patients with renal or hepatic impairment, colchicine taken in therapeutic doses) is listed as “life-threatening and fatal colchicine toxicity”, the “frequency of agranulocytosis, thrombocytopenia, aplastic anemia, leukopenia, granulocytopenia, pancytopenia (hematologic, rare)” value ([2]; reported adverse reactions) is listed as “less than 0.1%” and the “frequency of alopecia (dermatologic, rare)” value ([2]; reported adverse reactions) is listed as “less than 0.1%”. The “frequency of azoospermia, oligospermia (genitourinary, rare)” value ([2]; reported adverse reactions) was “less than 0.1%”, the “frequency of myopathy, rhabdomyolysis, elevated CPK, myotonia, muscle weakness, muscle pain (musculoskeletal, rare)” value ([2]; reported adverse reactions) was “less than 0.1%” and the “frequency of pharyngolaryngeal pain (respiratory, common)” value ([2]; reported adverse reactions) was 3%. The negative side effects ([1]; 1.8 mg colchicine twice daily (3.6 mg total dose), monitored for myelosuppression) was “no negative side effects; also recorded: has not experienced negative side effects”, the “NYHA class of heart failure symptoms” value ([1]; August 2015, previously NYHA class III) was “NYHA class I” and the “improvement in cardiac output, measured non-invasively using LVOT velocity time integral (VTI)” value ([1]; August 2015 echocardiogram, colchicine started early 2015) was 20%. The “ventricular remodeling (left ventricular size and volume)” value ([1]; February 2016 echocardiogram) was “positive ventricular remodeling”, the “cardiac output (LVOT)” value ([1]; February 2016 echocardiogram, LVOT initially was 15) was 22 and the ejection fraction ([1]; February 2016 echocardiogram, improvement from 40-45%) was 55%. For the same molecule, the “NYHA class of heart failure symptoms” value ([1]; as of July 2016, after stopping eplerenone and Sotalol) was “NYHA class I”, the “general condition / overall health of the patient” value ([1]; on colchicine, at higher doses than typically used for gout) was “dramatic recovery; also recorded: continued to improve” and the PVC volume ([1]; within 48 hours of colchicine administration, patient with LMNA-related DCM) was “diminished considerably”. The “treatment of FMF (preventing attacks, reduction of symptoms, prevention and treatment of amyloidosis)” value [3] was “very effective” and the “nuclear shape defects characteristic of LMNA cells” value (LMNA cells) was “rescue nuclear shape defects”.

For `COC(=O)[C@@H]1CC2=CC(=O)CC[C@]2(C)[C@@]23O[C@@H]2C[C@@]2(C)[C@@H](CC[C@@]24CCC(=O)O4)[C@H]13` [eplerenone], the “reason for ceasing drug (potassium levels)” value ([1]; March 2016) was “elevated potassium levels” and the “patient's condition” value [1] was “continued to deteriorate”.
